The test system of series [1] is Schistosoma. Description: Schistosomicidal activity (test not specified).
Series [2] concerns Schistosoma mansoni (evolutive stage of adult worm). Nature of the series: In vitro culture of Schistosoma mansoni adult worm couples (motility, separation, egglaying, tegument, death). The series is classed as cell-based. The settings on record: for time to considerable increase in the motility of parasite couples / time to separation of parasite couples: 14.0 and 7.0 μg/ml; for change in tegument or death of parasites: worms analyzed for 5 days. On the procedure: FIG. 1—effect of the drugs (−)-hinokinin (3) and (−)-O—(N,N-dimethylamino-ethyl) cubebin (4), in concentrations of 14, 7.5 and 3.5 μg/ml, under the parasite Schistosoma mansoni's egglaying during 5 days of culture.
FIG. 2—effect of the drug (−)-6,6-dinitroinokinin (8), in concentrations of 14, 7.5 and 3.5 μg/ml, under the parasite Schistosoma mansoni's egglaying during 5 days of culture.
FIG. 3—effect of the drug (−)—O-methylcubebin (5), in concentrations of 14, 7.5 and 3.5 μg/ml, under the parasite Schistosoma mansoni's egglaying during 5 days of culture
FIG. 4—parasite Schistosoma mansoni (evolutive stage of adult worm) cultivated in vitro in RPMI 1640 medium, in 5% CO2 atmosphere at 37° C. for 24 hours, in the absence and presence of the drug (−)-6,6-dinitroinokinin (8). A and C, male and female parasites, respectively, cultivated in the absence of substances. B and D, male and female parasite, respectively, cultivated in the presence of the Drug (the same effect was noticed in concentrations of 14.0, 7.0 and 3.0 μg/ml) Inverted light microscope, 4× magnification.
Two hours after the addition of substances 3 and 5 in concentrations of 14.0 and 7.0 μg/ml, considerable increase in the motility of parasite couples was noticed, ending up with their separation after 18 hours.

Series [3] has as its system S. mansoni. Nature of the series: Couples of S. mansoni recovered from infected BALB/c mice by perfusion after treatment. Format: in vivo, Schistosoma mansoni. The settings on record: for reduction of the viable worms: 10 mg/kg of weight, after 40 days of infection with S. mansoni; for efficacy / number of S. mansoni recovered / couples of S. mansoni recovered in the treated group: BALB/c mice; for efficacy / number of S. mansoni recovered: single dose 10 mg/kg after 40 days of infection; for couples of S. mansoni recovered in the treated group: single dose 10 mg/kg after 40 days of infection (approx. 200 cercariae), untreated group 40 couples/animal. On the procedure:
FIG. 8—graph with the number of recovered worms vs. effect of the drug. Couples of S. mansoni recovered from BALB/c mice by perfusion of the door-kidney system. Five mice, after 40 days of infection (approximately 200 cercariae), were submitted to test with a single dose of the drug dinitrocubebine (10 mg/kg of weight). In the group untreated (negative control treated only with a 5% dimethyl sulfoxide solution in water), 40 couples/animal were recovered. In the treated group, only 5 couples were recovered. […] FIG. 9—graph with the number of recovered worms vs. effect of the drug. Couples of S. mansoni recovered from BALB/c mice by perfusion of the door-kidney system. Five mice, after 40 days of infection (approximately 200 cercariae), were submitted to test with a single dose of the drug methylcubebin (10 mg/kg of weight). In the untreated group (negative control treated only with a 5% dimethyl sulfoxide solution in water), 40 couples/animal were recovered. In the treated group, only five couples were recovered. […] In in vivo tests, the drugs (−)—O-methylcubebin (6) and (−)-6,6′-dinitronokinin (8) presented results similar to the obtained with praziquantel, in the same concentration (10 mg/kg of weight), i.e. reduction of approximately 90% of the viable worms, after 40 days of infection with S. mansoni. […] Such a result was extremely important and promising, since the drug was given to the parasites when they were still maturing and had not yet reached the evolutive form of adult worms. […] Thus, the developed medicine may be used not only as a healing drug, but also as a prophylactic drug in the combat against schistosomosis. Another advantage relates to the low toxicity of these substances for use in antiparasitic therapeutics, since many of these derivatives have hepatic-protecting and antioxidant action. Thus, the use of these lignans certainly offers higher safety for therapeutic use than praziquantel. So, the use of these substances in medicines for longer treatments is safer than with praziquantel and they have nearly no significant side effects. Finally, this group of substances is obtained from natural sources, which is not applicable to praziquantel.

For series [4], the system named is Schistosoma mansoni (evolutive stage of adult worm). Description: In vitro culture of Schistosoma mansoni adult worm couples (motility, separation, egglaying, tegument, death). Format: cell-based. The settings on record: 14.0, 7.0 and 3.5 μg/ml.
The test system of series [5] is S. mansoni. Nature of the series: Couples of S. mansoni recovered from infected BALB/c mice by perfusion after treatment. The series is classed as in vivo, Schistosoma mansoni. The settings on record: after 7 and 21 days of infection.
Series [6] deals with Schistosoma. The settings on record: cited from earlier work.
The mark [7] stands for this setting: 3.5 μg/ml, after 24 hours of culture.

“Also recorded” adds a separate entry of the source. Read-outs that look alike come from different tables or passages of the source.

As for nectandrin D [16b], the schistosomicidal activity result with Schistosoma [1] is on record as “significant schistosomicidal activity”.
Consider `c1ccc(COC2OC[C@@H](Cc3ccc4c(c3)OCO4)[C@@H]2Cc2ccc3c(c2)OCO3)cc1` (single isomer, unassigned; (-)) [compound 7, (−)-O-benzylcubebin], for which the schistosomicidal activity entry in the series on Schistosoma [1] is listed as “significant schistosomicidal activity”.
Take caloptin [15a]: the schistosomicidal activity result in the series with Schistosoma [1] is on record as “significant schistosomicidal activity”.
With `O=C1OC[C@H](Cc2ccc3c(c2)OCO3)[C@H]1Cc1ccc2c(c1)OCO2` [compound 3, (−)-hinokinin], in series [2] (3.5 μg/ml), the “time to increase in the motility of couples” value came to 24 h and the “time to separation of the couples” value amounted to 36 h. In series [2] (setting [7]), the effect on egglaying result was “considerable reduction of egglaying”. Further, in series [2], the “time to considerable increase in the motility of parasite couples” value is “Two” and the “time to separation of parasite couples” value stood at 18 h. Moreover, in series [2] (14.0, 7.0 and 3.5 μg/ml), the “change in tegument or death of parasites” value is “no apparent change in tegument or death of parasites”. The schistosomicidal activity result in the series on Schistosoma [1] is “significant schistosomicidal activity”.
In the case of `COc1ccc([C@H]2O[C@@H](c3ccc(OC)c(OC)c3)[C@H](C)[C@H]2C)cc1OC` [15b, veragensin], the schistosomicidal activity entry in the series on Schistosoma [1] is “significant schistosomicidal activity”.
In the case of `O[C@H]1OC[C@H](Cc2ccc3c(c2)OCO3)[C@H]1Cc1ccc2c(c1)OCO2` [compound 2, (−)-cubebin], in the series on Schistosoma [1], the schistosomicidal activity entry was “significant schistosomicidal activity”.
For `O=C1OC[C@H](Cc2cc3c(cc2[N+](=O)[O-])OCO3)[C@H]1Cc1cc2c(cc1[N+](=O)[O-])OCO2` [compound 8, (−)-6,6′-dinitroinokinin], in series [2] (3.5 μg/ml), the “time to death of parasites” value is 36 h. In series [2] (7.0 μg/ml), the “time to death of parasites” value amounted to 24 h. Moreover, the “time to death of parasites” value in series [2] (14.0 μg/ml) was determined as 20 h. Also, the “death of the parasites” value in series [2] (14.0, 7.0 and 3.5 μg/ml) was “causing their death”. Moreover, in series [2] (14, 7.5 and 3.5 μg/ml), the “increase in motility of couples” value is given as “considerable increase in motility in the first hour of culture” and the “time to separation of the parasites” value worked out at 12 h. Also, the effect on egglaying entry in series [2] (14, 7.5 and 3.5 μg/ml, after separation) was “interruption in egglaying”. Besides, in the series on S. mansoni [3], the “reduction of the viable worms” value is reported as “approximately 90%” and the efficacy entry is “around 90%”. In the series on Schistosoma [1], the schistosomicidal activity entry is “significant schistosomicidal activity”. Further, the “tegument (cutaneous) lesions in male and female parasites” value in series [4] was “strong tegument lesions in both male and female parasites; also recorded: very evident tegument lesions”.
`COc1ccc([C@H]2O[C@@H](c3ccc(OC)c(OC)c3)[C@H](C)[C@@H]2C)cc1OC` [14b, galgravin]: in the series on Schistosoma [1], the schistosomicidal activity result is “significant schistosomicidal activity”.
Still for that read-out and setting: the same measure for `COc1ccc(C[C@H]2C(=O)OC[C@@H]2Cc2ccc3c(c2)OCO3)cc1OC` [compound 1, (−)-methylpluviatolide]: “significant schistosomicidal activity”; for `CC(=O)OC1OC[C@H](Cc2ccc3c(c2)OCO3)[C@H]1Cc1ccc2c(c1)OCO2` (single isomer, unassigned; (-)) [compound 4, (−)-O-acetylcubebin]: “significant schistosomicidal activity”.
As for `O=[N+]([O-])c1cc2c(cc1CC1COC(O)C1Cc1cc3c(cc1[N+](=O)[O-])OCO3)OCO2` (single isomer, unassigned; (-)) [8a, (−)-6,6′-dinitrocubebin], in the series with S. mansoni [3], the “number of S. mansoni recovered” value is “about 10%” and the “couples of S. mansoni recovered in the treated group” value amounted to 5 couples. Besides, the schistosomicidal activity entry in the series on Schistosoma [1] is “significant schistosomicidal activity”.
Regarding nectandrin E [16c], in the series on Schistosoma [1], the schistosomicidal activity result is “significant schistosomicidal activity”.
Still for that read-out and setting: the same measure for morelensine [1a]: “significant schistosomicidal activity”.
As to `COC1OC[C@@H](Cc2ccc3c(c2)OCO3)[C@@H]1Cc1ccc2c(c1)OCO2` (single isomer, unassigned; (-)) [compound 6, (−)-O-methylcubebin], in series [2] (14, 7.5 and 3.5 μg/ml), the “increase in motility of couples” value was “increased the motility of couples after the first hour of culture” and the “time to separation of the parasites” value is ≤ 12 h. In addition, in the series on S. mansoni [3], the “reduction of the viable worms” value is given as “approximately 90%”, the efficacy entry is given as “around 93%”, the “number of S. mansoni recovered” value was “about 10%” and the “couples of S. mansoni recovered in the treated group” value is recorded as “five”. Further, the schistosomicidal activity entry with Schistosoma [1] was “significant schistosomicidal activity”. Also, the “tegument (cutaneous) lesions in male and female parasites” value in series [4] is “did not produce cutaneous lesions”. Besides, the “reduction of the viable worms” value with S. mansoni [5] (two doses 10 mg/kg of weight) was “approximately 90%”. In the series on S. mansoni [5] (two doses 10 mg/kg), the “action on intermediary forms of the parasite (schistosomulus) in the vertebrate host” value is “also acts on the intermediary forms of the parasite (schistosomulus)”.
As to `COc1cc([C@H]2O[C@@H](c3ccc(OC)c(OC)c3)[C@H](C)[C@@H]2C)ccc1O` [14c, nectandrin A], the schistosomicidal activity result in the series on Schistosoma [1] is listed as “significant schistosomicidal activity”.
Same read-out and setting: the same measure for `COc1ccc([C@H]2O[C@H](c3ccc(OC)c(OC)c3)[C@@H](C)[C@H]2C)cc1OC` [16a, ganschisandrin]: “significant schistosomicidal activity”.
Regarding `CN(C)CCOC1OCC(Cc2ccc3c(c2)OCO3)C1Cc1ccc2c(c1)OCO2` (single isomer, unassigned; (-)) [compound 5, (−)-O—(N,N-dimethylaminoethyl)-cubebin], in series [2] (3.5 μg/ml), the “time to increase in the motility of couples” value turned out to be 24 h and the “time to separation of the couples” value came out at 36 h. In addition, the effect on egglaying entry in series [2] (setting [7]) is recorded as “considerable reduction of egglaying”. Besides, in series [2], the “time to considerable increase in the motility of parasite couples” value is listed as “Two” and the “time to separation of parasite couples” value came out at 18 h. Besides, the “change in tegument or death of parasites” value in series [2] (14.0, 7.0 and 3.5 μg/ml) is given as “no apparent change in tegument or death of parasites”. Further, the schistosomicidal activity entry with Schistosoma [1] is “significant schistosomicidal activity”.
In the case of `COc1cc([C@H]2O[C@@H](c3ccc(O)c(OC)c3)[C@H](C)[C@@H]2C)ccc1O` [14d, nectandrin B], the schistosomicidal activity result in the series on Schistosoma [1] is reported as “significant schistosomicidal activity”.
The same measure, in the same setting: next, `Nc1cc2c(cc1CC1COC(=O)C1Cc1cc3c(cc1N)OCO3)OCO2` (single isomer, unassigned; (-)) [compound 9, (−)-6,6′-diaminonokinin]: “significant schistosomicidal activity”; `COc1cc(OC)c([C@H]2[C@H](C)[C@@H](c3cc(OC)c(OC)cc3OC)O[C@H]2C)cc1OC` [compound 17, magnosalicin]: “significant schistosomicidal activity”.
Consider aristolignine [15c], for which, in the series with Schistosoma [1], the schistosomicidal activity entry is “significant schistosomicidal activity”.
Still for that read-out and setting: next, machilin [14a]: “significant schistosomicidal activity”.
For the molecule `CC(C)NCC1CCc2cc(CO)c([N+](=O)[O-])cc2N1` (stereo not shown) [Oxamniquin, oxamniquin], the “cases in which the drug is effective” value in the series on Schistosoma [6] (adults) is reported as “about 80%”; in the series on Schistosoma [6] (children), ~65%. Further, in the series with Schistosoma [6] (patients), the side effects entry is “cephalgia, sleepiness, nausea, tremors and rarely convulsions”.
